The values below come from PubChem BioAssay (NCI).

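All cell lines were grown in 96-well plates and treated with compound for 48 hours. At the TGI there is no net growth.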

Test in all cases: NCI tumour cell line growth inhibition, 48 h
The subject of experiment [1] is BT-549 breast.
In experiment [2] the test system is HCT-116 colon.
Experiment [3] deals with HCT-15 colon.
The test system of experiment [4] is IGROV1 ovarian.
Experiment [5] has as its system KM12 colon.
The subject of experiment [6] is MDA-N.
Experiment [7] deals with MOLT-4 leukemia.
Experiment [8] concerns NCI-H522 lung.
The subject of experiment [9] is OVCAR-3 ovarian.
For experiment [10], the system named is SK-MEL-2 melanoma.
The test system of experiment [11] is SW-620 colon.
The test system of experiment [12] is U251 CNS.

With `COC1OC(CO)C(O)C(OC(=O)c2cc(O)c(O)c(O)c2)C1OC(=O)c1cc(O)c(O)c(O)c1` (stereo not given), the TGI in [1] is over 100 µM; in experiment [2], over 100 µM; in experiment [3], over 100 µM; in experiment [4], over 100 µM; in experiment [5], over 100 µM; in experiment [6], 55.7 µM. The TGI in [7], in experiment [8], in [9], in [10], in experiment [11] and in experiment [12] was over 100 µM each time.

As to `CC(=O)Nc1ccc2c(C)c3c4ccccc4n(C)c3nc2n1`, the TGI in experiment [1] is 84.8 µM; in experiment [2], 44.6 µM; in experiment [3] it was 48.6 µM; in experiment [4], over 100 µM; in [5] it was 40.2 µM; in experiment [6] it was 34.5 µM. Moreover, the TGI in [7] stood at 32.1 µM; in [8], 65.6 µM; in experiment [9], 70.1 µM; in experiment [10], 47.6 µM; in [11] it was 46.6 µM.

In the case of `O=C(Nc1nc(C23CC4CC(CC(C4)C2)C3)cs1)c1cc2cc(Br)cc(Br)c2oc1=O`, the TGI in [1], in [2], in [3], in [4], in experiment [5] and in [6] was over 100 µM throughout. Also, the TGI in experiment [7] was over 100 µM; in experiment [8], over 100 µM; in experiment [9] it was over 100 µM; in experiment [10], over 100 µM; in experiment [11], over 100 µM; in [12] it was 41.5 µM.

As to `CC(=O)c1ccc2c(c1)oc(=O)n2CCN1CCCCC1`, the TGI in experiment [1], in experiment [2], in experiment [3], in experiment [4], in [5] and in experiment [6] was over 100 µM throughout. Further, the TGI in experiment [7], in experiment [9], in experiment [10], in experiment [11] and in [12] was over 100 µM in each case.

As for `O=C(Cc1ccccc1)c1ccc2[nH]c(=O)oc2c1`, the TGI in experiment [1], in [2], in [3], in experiment [4], in experiment [5] and in [6] was over 100 µM in each case. In addition, the TGI in experiment [7] was over 100 µM; in experiment [9], over 100 µM; in experiment [10] it was over 100 µM; in experiment [11], over 100 µM; in experiment [12], 62.3 µM.

Consider `Cc1ccc(S(=O)(=O)NNC(=S)Nc2cccc3ccccc23)cc1`, for which the TGI was over 100 µM in [2]; over 100 µM in experiment [3]; over 100 µM in experiment [4]; 99 µM in [5]; over 100 µM in [6]; over 100 µM in experiment [7]. Further, the TGI in experiment [8] is 46.6 µM; in [10], over 100 µM; in [11], over 100 µM; in experiment [12] it was over 100 µM.

As for `O=C1/C(=C\c2cccc(Oc3ccccc3)c2)SC(c2ccccc2)N1c1ccc(Cl)cc1` (stereo not given), the TGI is over 100 µM in experiment [1]; over 100 µM in [2]; over 100 µM in [3]; over 100 µM in [5]; over 87.9 µM in [6]; over 63.6 µM in experiment [7]. Also, the TGI in [8] is 96.9 µM; in experiment [9], over 100 µM; in experiment [10] it was over 100 µM; in [11] it was over 100 µM; in experiment [12], over 100 µM.

Turning to `NC1CC(=O)c2cc(Br)sc21` (stereo not given), the TGI in experiment [1], in [2], in experiment [3], in [4], in experiment [5] and in experiment [6] was over 100 µM each time. The TGI in [7], in experiment [9], in [10], in experiment [11] and in experiment [12] was over 100 µM throughout.

Consider `CC1OC(O[C@H]2CC[C@]3(C)[C@H]4CC=C5[C@@H]6[C@@H](C)[C@H](C)CC[C@]6(C(=O)O)CC[C@@]5(C(=O)O)[C@]4(C)CC[C@H]3C2(C)C)C(O)C(O)C1O` (stereo not given in full), for which the TGI in [1], in experiment [2], in experiment [3], in [5], in [6] and in [7] was over 75 µM each time. The TGI in experiment [8], in [9], in experiment [10], in experiment [11] and in experiment [12] was over 75 µM in each case.

Turning to `N=C1C(=N)c2ccccc2-c2ccccc21`, the TGI stood at 2.23 µM in experiment [1]; 1.2 µM in experiment [2]; 2.99 µM in experiment [3]; 3.93 µM in [4]; 3.4 µM in experiment [5]; 0.325 µM in experiment [6]. The TGI in experiment [7] is 1.61 µM; in experiment [8], 3.99 µM; in experiment [9], 1.41 µM; in experiment [10], 2.97 µM; in experiment [12], 2.63 µM.

On to `CC1[C@@H](OCc2ccccc2)COC(=O)N1Cc1ccccc1` (stereo not given in full), for which the TGI in [2], in experiment [3], in experiment [4], in [5], in [6] and in experiment [7] was over 100 µM each time. Besides, the TGI in experiment [9], in experiment [10], in experiment [11] and in [12] was over 100 µM throughout.

For the compound `C=C[C@@]1(C)CC(=O)[C@]2(O)[C@@]3(C)[C@@H](OC(C)=O)CCC(C)(C)[C@@H]3[C@H](OC(C)=O)[C@H](OC(C)=O)[C@@]2(C)O1`, the TGI in experiment [1], in experiment [2], in experiment [3], in [4], in experiment [5] and in [6] was over 100 µM each time. Further, the TGI in experiment [7], in [9], in [10], in experiment [11] and in experiment [12] was over 100 µM in each case.

As to `CC1(C)OCC(C2OC(N3O[C@H](CI)C[C@@H]3c3ccccc3)C3OC(C)(C)OC23)O1` (stereo not given in full), the TGI in experiment [1], in experiment [2], in experiment [3], in experiment [4], in [5] and in [6] was over 100 µM throughout. The TGI in experiment [8], in [9], in experiment [10], in experiment [11] and in [12] was over 100 µM throughout.

On to `CC(=O)O[C@H]1C(=O)[C@@]2(C)[C@H]([C@H](OC(=O)C3CCCCC3)[C@]3(O)C[C@H](OC(=O)[C@H](O)[C@@H](NC(=O)C4CCCCC4)C4CCCCC4)C(C)=C1C3(C)C)[C@]1(OC(C)=O)CO[C@@H]1C[C@@H]2O`, for which the TGI in [1] amounted to 0.778 µM; in experiment [2], 3.33 µM; in experiment [3], 4.42 µM; in experiment [4], 6.77 µM; in experiment [5], 5.53 µM; in experiment [6], 0.00852 µM. Also, the TGI was found to be 4.18 µM in experiment [7]; 0.136 µM in experiment [8]; 0.0355 µM in experiment [9]; 25 µM in experiment [11]; 1.66 µM in experiment [12].

Regarding `N#CS/C(Cl)=C(/C(Cl)=C(Cl)Cl)[N+](=O)[O-]`, the TGI in experiment [1] is over 100 µM; in [2] it was 75.7 µM; in experiment [3], 45.9 µM; in [4] it was over 100 µM; in [5], over 100 µM; in experiment [6] it was over 100 µM. For the same compound, the TGI in experiment [7] was 64.9 µM; in experiment [9], 48.9 µM; in experiment [11], over 100 µM; in [12] it was over 100 µM.

On to `O=C1CCCc2cc3c(cc21)CCC3C(=O)O` (stereo not given), for which the TGI in experiment [1], in experiment [2], in [3], in experiment [4], in experiment [5] and in experiment [6] was over 100 µM in each case. In addition, the TGI in experiment [7], in experiment [8], in experiment [10], in experiment [11] and in experiment [12] was over 100 µM in each case.

Turning to `CC1C[C@]2(C)C(=S)Nc3ccccc3[C@@H]2Nc2ccccc21` (stereo not given in full), the TGI worked out at 26.7 µM in [2]; 50.8 µM in experiment [3]; 40.3 µM in [4]; 28.9 µM in experiment [5]; 37.4 µM in experiment [6]; 56.1 µM in experiment [7]. For the same compound, the TGI stood at 32.1 µM in experiment [9], 32 µM in experiment [10] and 55.7 µM in experiment [11].

As for `C=C1C(=O)C23CC1C[C@H](OC(C)=O)C2C1(C)C(OC(C)=O)C[C@H](O)C(C)(C)[C@H]1C(O)[C@@H]3OC(C)=O` (stereo not given in full), the TGI in experiment [1] is 13.5 µM; in experiment [2], 16.2 µM; in experiment [3] it was 25.7 µM; in [4], 30.6 µM; in experiment [5], over 54.5 µM; in [7], 8.64 µM. For the same compound, the TGI was 3.34 µM in experiment [8]; 19.1 µM in experiment [9]; 29.7 µM in experiment [10]; 6.14 µM in experiment [11]; 28.9 µM in experiment [12].

Regarding `Cc1sc2nc3n(c(=O)c2c1C)N=C(c1ccc(Cl)cc1)CS3`, the TGI in [1], in [2], in [3], in experiment [5], in [6] and in experiment [7] was over 100 µM each time. Further, the TGI in [8], in experiment [9], in experiment [11] and in experiment [12] was over 100 µM each time.

Turning to `CNC(=O)CCNC(=O)CCC(=O)OC`, the TGI in [2], in [5], in [6], in experiment [7], in experiment [9] and in experiment [10] was over 100 µM in each case. Besides, the TGI in [11] and in experiment [12] was over 100 µM each time.

In the case of `CSc1cc(Cl)c(C)cc1S(=O)(=O)NC(=O)NNc1ccc(F)c(Cl)c1`, the TGI in experiment [2], in experiment [3], in [4], in experiment [5], in [6] and in experiment [7] was over 100 µM in each case. Moreover, the TGI in [8], in experiment [9], in experiment [10], in [11] and in [12] was over 100 µM throughout.

On to `Cc1cc(Cl)ccc1N=NC(=O)NNc1ccc(Cl)cc1C`, for which the TGI in experiment [1] was determined as 32.2 µM; in experiment [2], 26.7 µM; in experiment [3] it was 25.8 µM; in experiment [4] it was 20.7 µM; in experiment [6], 30.3 µM; in experiment [7], 48.9 µM. For the same compound, the TGI in [8] was 35.1 µM; in [9], 31 µM; in experiment [10], 28 µM; in [11] it was 30.2 µM; in experiment [12], 31.4 µM.

For the compound `C=CCOCn1ccc(=O)[nH]c1=O`, the TGI in experiment [1], in [2], in [3], in experiment [4], in [5] and in experiment [6] was over 100 µM in each case. Besides, the TGI in experiment [7], in experiment [8] and in [11] was over 100 µM in each case.

As for `CC(C)(C)N1NC1C1NN1C(C)(C)C` (stereo not given), the TGI in experiment [2], in [3], in experiment [4], in experiment [5], in experiment [6] and in experiment [7] was over 100 µM each time. In addition, the TGI in experiment [8], in experiment [9], in experiment [10], in experiment [11] and in experiment [12] was over 100 µM each time.
